In US20250325534A1, “MICROBIOCIDAL TETRAHYDROISOQUINOLINE DERIVATIVES” (SYNGENTA CROP PROTECTION AG, priority 2021, published 2025):

Tests used:
Alternaria solani = Alternaria solani / tomato / leaf disc (early blight); assay type: in vivo; conditions: foliar, inoculated 2 days after application, vs untreated control
Procedure: Example B1: Alternaria solani/Tomato/Leaf Disc (Early Blight) Tomato leaf disks cv. Baby are placed on agar in multiwell plates (24-well format) and sprayed with the formulated test compound diluted in water. The leaf disks are inoculated with a spore suspension of the fungus 2 days after application. The inoculated leaf disks are incubated at 23° C./21° C. (day/night) and 80% relative humidity under a light regime of 12 h/12 h (light/dark) in a climate cabinet and the activity of a compound is assessed as percent disease control compared to untreated when an appropriate level of disease damage appears on untreated check disk leaf disks (5-7 days after application).

[1] = tested on: Mycosphaerella graminicola; test: Mycosphaerella graminicola (Septoria tritici) / liquid culture (Septoria blotch); assay type: cell-based; conditions: Zymoseptoria tritici, 96 h, photometrically 4-5 days after application, read-out: control of Mycosphaerella graminicola
Outline: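 Growth inhibition measured by photometry 4-5 days post application, at 24° C incubation. Test compound supplied as DMSO solution; fungal conidia from cryostorage suspended directly in potato dextrose broth as inoculum.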

Mycosphaerella arachidis = Mycosphaerella arachidis (Cercospora arachidicola) / liquid culture (early leaf spot); assay type: cell-based; conditions: 96 h, photometrically 4-5 days after application, read-out: control of Mycosphaerella arachidis
Procedure: (§1) Example B11: Mycosphaerella arachidis (Cercospora arachidicola)/Liquid Culture (Early Leaf Spot) Conidia of the fungus from cryogenic storage are directly mixed into a nutrient broth (potato dextrose broth). After placing a DMSO solution of test compound into a microtiter plate (96-well format), the nutrient broth containing the fungal spores is added. The test plates are incubated at 24° C. and the inhibition of growth is determined photometrically 4-5 days after application.

Glomerella lagenarium = Glomerella lagenarium (Colletotrichum lagenarium) / liquid culture (anthracnose); assay type: cell-based; conditions: Colletotrichum orbiculare, 72 h, photometrically 3-4 days after application, read-out: control of Glomerella lagenarium
Procedure: as §1, with “B5: Glomerella Lagenarium (Colletotrichum Lagenarium)/Liquid” for “B11: Mycosphaerella arachidis (Cercospora arachidicola)/Liquid”, “(Anthracnose)” for “(Early Leaf Spot)”, “measured” for “determined”, “3-4” for “4-5”

Monographella nivalis = Monographella nivalis (Microdochium nivale) / liquid culture (foot rot cereals); assay type: cell-based; conditions: 96 h, photometrically 4-5 days after application, read-out: control of Monographella nivalis
Procedure: as §1, with “B10: Monographella nivalis (Microdochium nivale)/Liquid” for “B11: Mycosphaerella arachidis (Cercospora arachidicola)/Liquid”, “(Foot Rot Cereals)” for “(Early Leaf Spot)”

Cn1ncc(C2CN(C(=O)c3cc(-c4ccc(F)cc4F)on3)Cc3ccccc32)c1Cl (centres unmarked) [Compound P-38, [4-(5-chloro-1-methyl-pyrazol-4-yl)-3,4-dihydro-1H-isoquinolin-2-yl]-[5-(2,4-difluorophenyl)isoxazol-3-yl]methanone]
pest or weed control at 200 ppm (Alternaria solani): ≥ 80%

COC(=O)C1c2ccccc2C(c2cnn(C)c2)CN1C(=O)c1cc(-c2ccc(F)cc2F)on1 (centres unmarked) [Compound P-42, methyl 2-[5-(2,4-difluorophenyl)isoxazole-3-carbonyl]-4-(1-methylpyrazol-4-yl)-3,4-dihydro-1H-isoquinoline-1-carboxylate]
pest or weed control at 200 ppm (Alternaria solani): ≥ 80%

Cn1ncc(C2CN(C(=O)c3cc(-c4ccc(F)cc4F)on3)Cc3ccccc32)c1F (centres unmarked) [Compound P-52, [5-(2,4-difluorophenyl)isoxazol-3-yl]-[4-(5-fluoro-1-methyl-pyrazol-4-yl)-3,4-dihydro-1H-isoquinolin-2-yl]methanone]
pest or weed control at 200 ppm (Alternaria solani): ≥ 80%

Cn1cc(C2CN(C(=O)c3nnc(-c4ccc(F)cc4F)o3)Cc3ccccc32)cn1 (centres unmarked) [Compound P-55, [5-(2,4-difluorophenyl)-1,3,4-oxadiazol-2-yl]-[4-(1-methylpyrazol-4-yl)-3,4-dihydro-1H-isoquinolin-2-yl]methanone]
pest or weed control at 200 ppm (Alternaria solani): ≥ 80% | inhibition of growth at 20 ppm [1]: ≥ 80%

Cn1cc(C2CN(C(=O)c3nnc(-c4ccc(F)cc4)o3)Cc3ccccc32)cn1 (centres unmarked) [Compound P-56, [5-(4-fluorophenyl)-1,3,4-oxadiazol-2-yl]-[4-(1-methylpyrazol-4-yl)-3,4-dihydro-1H-isoquinolin-2-yl]methanone]
pest or weed control at 200 ppm (Alternaria solani): ≥ 80%

Cn1cc(C2c3ccccc3CN(C(=O)c3cc(-c4ccc(F)cc4F)on3)C2(C)C)cn1 (centres unmarked) [Compound P-105, [5-(2,4-difluorophenyl)isoxazol-3-yl]-[3,3-dimethyl-4-(1-methylpyrazol-4-yl)-1,4-dihydroisoquinolin-2-yl]methanone]
pest or weed control at 200 ppm (Alternaria solani): ≥ 80%

Cc1nn(C)c(C)c1C1CN(C(=O)c2cc(-c3ccc(F)cc3F)sn2)Cc2ccccc21 (centres unmarked) [Compound P-115, [5-(2,4-difluorophenyl)isothiazol-3-yl]-[4-(1,3,5-trimethylpyrazol-4-yl)-3,4-dihydro-1H-isoquinolin-2-yl]methanone]
pest or weed control at 200 ppm (Alternaria solani): ≥ 80% | inhibition of growth at 20 ppm [1]: ≥ 80%

Cc1nn(C)c(C)c1C1CN(C(=O)c2cc(-c3ccc(F)cc3)on2)Cc2ccccc21 (centres unmarked) [Compound P-118, [5-(4-fluorophenyl)isoxazol-3-yl]-[4-(1,3,5-trimethylpyrazol-4-yl)-3,4-dihydro-1H-isoquinolin-2-yl]methanone]
inhibition of growth at 20 ppm (Mycosphaerella arachidis): ≥ 80% | pest or weed control at 200 ppm (Alternaria solani): ≥ 80% | inhibition of growth at 20 ppm [1]: ≥ 80%

Cc1nn(C)cc1C1CN(C(=O)c2cc(-c3ccc(F)cc3F)on2)Cc2ccccc21 (centres unmarked) [Compound P-121, [5-(2,4-difluorophenyl)isoxazol-3-yl]-[4-(1,3-dimethylpyrazol-4-yl)-3,4-dihydro-1H-isoquinolin-2-yl]methanone]
inhibition of growth at 20 ppm (Mycosphaerella arachidis): ≥ 80% | inhibition of growth at 20 ppm [1]: ≥ 80% | inhibition of growth at 20 ppm (Glomerella lagenarium): ≥ 80% | inhibition of growth at 20 ppm (Monographella nivalis): ≥ 80%

Cc1nn(C)c(C)c1C1CN(C(=O)c2cc(-c3ccc(F)cc3F)on2)Cc2ncccc21 (centres unmarked) [Compound P-124, [5-(2,4-difluorophenyl)isoxazol-3-yl]-[5-(1,3,5-trimethylpyrazol-4-yl)-6,8-dihydro-5H-1,7-naphthyridin-7-yl]methanone]
pest or weed control at 200 ppm (Alternaria solani): ≥ 80%

Cn1cc(C2CN(C(=O)c3nc(-c4ccc(F)cc4F)no3)Cc3ccccc32)cn1 (centres unmarked) [Compound P-127, [3-(2,4-difluorophenyl)-1,2,4-oxadiazol-5-yl]-[4-(1-methylpyrazol-4-yl)-3,4-dihydro-1H-isoquinolin-2-yl]methanone]
pest or weed control at 200 ppm (Alternaria solani): ≥ 80% | inhibition of growth at 20 ppm [1]: ≥ 80% | inhibition of growth at 20 ppm (Monographella nivalis): ≥ 80%

CCn1cc(C2CN(C(=O)c3cc(-c4ccc(F)cc4F)on3)Cc3ccccc32)cn1 (centres unmarked) [Compound P-131, [5-(2,4-difluorophenyl)isoxazol-3-yl]-[4-(1-ethylpyrazol-4-yl)-3,4-dihydro-1H-isoquinolin-2-yl]methanone]
pest or weed control at 200 ppm (Alternaria solani): ≥ 80% | inhibition of growth at 20 ppm [1]: ≥ 80%

Cn1cc(C2CN(C(=O)c3cc(-c4ccccc4)on3)Cc3cc(F)ccc32)cn1 (centres unmarked) [Compound P-138, [7-fluoro-4-(1-methylpyrazol-4-yl)-3,4-dihydro-1H-isoquinolin-2-yl]-(5-phenylisoxazol-3-yl)methanone]
inhibition of growth at 20 ppm (Mycosphaerella arachidis): ≥ 80% | inhibition of growth at 20 ppm [1]: ≥ 80% | inhibition of growth at 20 ppm (Glomerella lagenarium): ≥ 80% | inhibition of growth at 20 ppm (Monographella nivalis): ≥ 80%

Cc1c(C2CN(C(=O)c3cc(-c4ccc(F)cc4F)on3)Cc3ccccc32)cnn1C (centres unmarked) [Compound P-140, [5-(2,4-difluorophenyl)isoxazol-3-yl]-[4-(1,5-dimethylpyrazol-4-yl)-3,4-dihydro-1H-isoquinolin-2-yl]methanone]
pest or weed control at 200 ppm (Alternaria solani): ≥ 80%

Cn1cc(C2CN(C(=O)c3noc(-c4ccccc4)n3)Cc3ccccc32)cn1 (centres unmarked) [Compound P-146, [4-(1-methylpyrazol-4-yl)-3,4-dihydro-1H-isoquinolin-2-yl]-(5-phenyl-1,2,4-oxadiazol-3-yl)methanone]
pest or weed control at 200 ppm (Alternaria solani): ≥ 80%

Cc1nn(C)c(C)c1C1CN(C(=O)c2cc(-c3ccccc3)on2)Cc2ccccc21 (centres unmarked) [Compound P-148, (5-phenylisoxazol-3-yl)-[4-(1,3,5-trimethylpyrazol-4-yl)-3,4-dihydro-1H-isoquinolin-2-yl]methanone]
inhibition of growth at 20 ppm (Mycosphaerella arachidis): ≥ 80% | pest or weed control at 200 ppm (Alternaria solani): ≥ 80% | inhibition of growth at 20 ppm [1]: ≥ 80%

Cn1cc(C2CN(C(=O)c3nnc(-c4ccccc4)o3)Cc3ccccc32)cn1 (centres unmarked) [Compound P-163, [4-(1-methylpyrazol-4-yl)-3,4-dihydro-1H-isoquinolin-2-yl]-(5-phenyl-1,3,4-oxadiazol-2-yl)methanone]
pest or weed control at 200 ppm (Alternaria solani): ≥ 80%

Cn1cc(C2CN(C(=O)c3cc(-c4cccc(F)c4)on3)Cc3ccccc32)cn1 (centres unmarked) [Compound P-168, [5-(3-fluorophenyl)isoxazol-3-yl]-[4-(1-methylpyrazol-4-yl)-3,4-dihydro-1H-isoquinolin-2-yl]methanone]
pest or weed control at 200 ppm (Alternaria solani): ≥ 80% | inhibition of growth at 20 ppm [1]: ≥ 80%

Cn1cc(C2CN(C(=O)c3cc(C4CCC4)on3)Cc3ccccc32)cn1 (centres unmarked) [Compound P-182, (5-cyclobutylisoxazol-3-yl)-[4-(1-methylpyrazol-4-yl)-3,4-dihydro-1H-isoquinolin-2-yl]methanone]
inhibition of growth at 20 ppm (Mycosphaerella arachidis): ≥ 80% | pest or weed control at 200 ppm (Alternaria solani): ≥ 80% | inhibition of growth at 20 ppm [1]: ≥ 80%

Cn1cc(C2CN(C(=O)c3cc(-c4ccccc4)on3)Cc3ccccc32)cn1 (centres unmarked) [Compound P-205, [4-(1-methylpyrazol-4-yl)-3,4-dihydro-1H-isoquinolin-2-yl]-(5-phenylisoxazol-3-yl)methanone]
inhibition of growth at 20 ppm (Mycosphaerella arachidis): ≥ 80% | inhibition of growth at 20 ppm [1]: ≥ 80% | inhibition of growth at 20 ppm (Glomerella lagenarium): ≥ 80% | inhibition of growth at 20 ppm (Monographella nivalis): ≥ 80%

Cn1cc(C2(C)CN(C(=O)c3nnc(-c4ccc(F)cc4F)s3)Cc3ccccc32)cn1 (centres unmarked) [Compound P-207, [5-(2,4-difluorophenyl)-1,3,4-thiadiazol-2-yl]-[4-methyl-4-(1-methylpyrazol-4-yl)-1,3-dihydroisoquinolin-2-yl]methanone]
pest or weed control at 200 ppm (Alternaria solani): ≥ 80%

Cn1cc([C@]2(C)CN(C(=O)c3nnc(-c4ccc(F)cc4F)s3)Cc3ccccc32)cn1 [Compound P-208, [5-(2,4-difluorophenyl)-1,3,4-thiadiazol-2-yl]-[(4R)-4-methyl-4-(1-methylpyrazol-4-yl)-1,3-dihydroisoquinolin-2-yl]methanone]
pest or weed control at 200 ppm (Alternaria solani): ≥ 80%

Cc1c(C2CN(C(=O)c3nnc(-c4ccc(F)cc4F)o3)Cc3ccccc32)cnn1C (centres unmarked) [Compound P-225]
pest or weed control at 200 ppm (Alternaria solani): ≥ 80%

Cc1c(C2CN(C(=O)c3cc(-c4cccn4C)on3)Cc3ccccc32)cnn1C (centres unmarked) [Compound P-231, [4-(1,5-dimethylpyrazol-4-yl)-3,4-dihydro-1H-isoquinolin-2-yl]-[5-(1-methylpyrrol-2-yl)isoxazol-3-yl]methanone]
inhibition of growth at 20 ppm (Mycosphaerella arachidis): ≥ 80% | inhibition of growth at 20 ppm [1]: ≥ 80% | inhibition of growth at 20 ppm (Glomerella lagenarium): ≥ 80%

Cc1c(C2CN(C(=O)c3nnc(C4CCC4)s3)Cc3ccccc32)cnn1C (centres unmarked) [Compound P-232, (5-cyclobutyl-1,3,4-thiadiazol-2-yl)-[4-(1,5-dimethylpyrazol-4-yl)-3,4-dihydro-1H-isoquinolin-2-yl]methanone]
inhibition of growth at 20 ppm (Mycosphaerella arachidis): ≥ 80% | inhibition of growth at 20 ppm [1]: ≥ 80% | inhibition of growth at 20 ppm (Glomerella lagenarium): ≥ 80%
